From ChEMBL document CHEMBL5096176, “AAA ATPases as therapeutic targets: Structure, functions, and small-molecule inhibitors” (Eur J Med Chem, 2021)

Experiments:
[1] = Selectivity index, ratio of CC50 for MDCK cells to EC50 for Influenza A virus (A/Texas/04/2009 (H1N1)) infected in MDCK cells; format: toxicity, cell-based; settings: dog, read-out: Ratio CC50/EC50
[2] = system: Cytomegalovirus; assay: Antiviral activity against human Cytomegalovirus infected in human fibroblast cells assessed as viral growth inhibition preincubated for 24 hrs with compound followed by viral infection by plaque assay; format: functional, organism-based; settings: Human betaherpesvirus 5, Fibroblast
[3] = Selectivity index, ratio of CC50 for MDCK cells to EC50 for Influenza A virus (A/Denmark/528/2009 (H1N1)) infected in MDCK cells; format: toxicity, cell-based; settings: dog, read-out: Ratio CC50/EC50
[4] = system: Influenza A virus; assay: Antiviral activity against Influenza A virus (A/Denmark/528/2009 (H1N1)) infected in MDCK cells over expressing ST6Gal I assessed as inhibition of viral replication by plaque assay; format: functional, organism-based
[5] = system: Influenza A virus; assay: Antiviral activity against Influenza A virus (A/Texas/04/2009 (H1N1)) infected in MDCK cells over expressing ST6Gal I assessed as inhibition of viral replication by plaque assay; format: functional, organism-based
[6] = Selectivity index, ratio of CC50 for MDCK cells to EC50 for Oseltamivir-resisitant Influenza A virus (A/North Carolina/39/2009 (H1N1)) infected in MDCK cells; format: toxicity, cell-based; settings: dog, read-out: Ratio CC50/EC50
[7] = molecular target: T1, Spastin (Homo sapiens, UniProt Q9UBP0); assay: Inhibition of human Spastin in presence of ATP
T1 sequence (Q9UBP0 whole entry): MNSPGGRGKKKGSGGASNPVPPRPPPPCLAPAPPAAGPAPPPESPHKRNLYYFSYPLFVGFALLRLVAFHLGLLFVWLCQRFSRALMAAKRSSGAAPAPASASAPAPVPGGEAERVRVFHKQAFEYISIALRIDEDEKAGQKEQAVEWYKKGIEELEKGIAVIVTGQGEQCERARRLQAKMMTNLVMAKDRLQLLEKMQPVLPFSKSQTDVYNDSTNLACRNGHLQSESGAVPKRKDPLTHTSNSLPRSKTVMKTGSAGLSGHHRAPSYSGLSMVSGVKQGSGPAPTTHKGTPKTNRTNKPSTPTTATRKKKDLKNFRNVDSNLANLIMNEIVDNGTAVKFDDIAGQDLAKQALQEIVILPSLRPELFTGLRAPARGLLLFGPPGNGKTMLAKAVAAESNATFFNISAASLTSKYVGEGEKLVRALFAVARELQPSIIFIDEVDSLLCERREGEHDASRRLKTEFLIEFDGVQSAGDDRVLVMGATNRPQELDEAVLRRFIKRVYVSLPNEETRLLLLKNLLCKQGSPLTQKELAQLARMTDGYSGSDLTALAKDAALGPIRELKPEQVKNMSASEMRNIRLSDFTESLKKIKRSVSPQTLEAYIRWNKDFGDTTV

[8] = system: Hep 3B2; assay: Anticancer activity against human Hep3B cells assessed as inhibition of cell proliferation incubated for 4 days by MTS assay; format: functional, cell-based; settings: 96 h
[9] = system: Huh-7; assay: Anticancer activity against human Huh-7 cells assessed as inhibition of cell proliferation incubated for 4 days by MTS assay; format: functional, cell-based; settings: Huh-7, 96 h
[10] = system: HeLa; assay: Anticancer activity against human HeLa cells assessed as cell growth inhibition; format: functional, cell-based
[11] = system: Schizosaccharomyces pombe; assay: Antifungal activity against Schizosaccharomyces pombe assessed as fungal growth inhibition incubated for 18 hrs by absorbance based assay; format: functional
[12] = molecular target: T2, Transitional endoplasmic reticulum ATPase (Homo sapiens, UniProt P55072); assay: Inhibition of p97 (unknown origin) in presence of ATP by Biomol Green Reagent based assay
[13] = molecular target: T2, Transitional endoplasmic reticulum ATPase; assay: Inhibition of p97 (unknown origin) incubated for 15 mins in presence of ATP by ADP Glo assay
[14] = Inhibition of Drosophila melanogaster Spastin N527C mutant (209 to 758 residues) in presence of ATP by NADH-coupled fluorescence assay
[15] = molecular target: T3, Spastin (Drosophila melanogaster, UniProt Q8I0P1); assay: Inhibition of wild-type Drosophila melanogaster Spastin (209 to 758 residues) in presence of ATP by NADH-coupled fluorescence assay
T3 sequence (Q8I0P1 whole entry): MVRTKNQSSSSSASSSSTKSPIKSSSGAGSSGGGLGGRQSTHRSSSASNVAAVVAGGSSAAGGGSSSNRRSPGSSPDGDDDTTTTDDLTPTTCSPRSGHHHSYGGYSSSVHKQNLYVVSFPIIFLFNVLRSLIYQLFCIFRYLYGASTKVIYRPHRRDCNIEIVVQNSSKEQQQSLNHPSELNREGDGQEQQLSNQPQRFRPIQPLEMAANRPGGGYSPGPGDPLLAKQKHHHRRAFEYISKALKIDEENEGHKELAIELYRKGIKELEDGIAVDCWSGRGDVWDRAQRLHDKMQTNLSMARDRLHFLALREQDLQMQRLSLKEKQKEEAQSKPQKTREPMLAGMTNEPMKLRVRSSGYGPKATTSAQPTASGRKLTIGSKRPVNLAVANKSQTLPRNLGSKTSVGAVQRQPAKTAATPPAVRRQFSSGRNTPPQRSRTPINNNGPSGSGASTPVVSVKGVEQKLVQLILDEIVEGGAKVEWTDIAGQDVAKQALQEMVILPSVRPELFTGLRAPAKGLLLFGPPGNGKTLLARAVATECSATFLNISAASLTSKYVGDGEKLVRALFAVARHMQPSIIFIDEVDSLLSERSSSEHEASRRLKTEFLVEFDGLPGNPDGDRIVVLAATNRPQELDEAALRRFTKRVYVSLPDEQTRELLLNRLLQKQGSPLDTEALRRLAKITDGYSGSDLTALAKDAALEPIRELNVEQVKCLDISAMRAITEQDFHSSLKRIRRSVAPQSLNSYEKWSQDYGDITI

T2 sequence (P55072 whole entry): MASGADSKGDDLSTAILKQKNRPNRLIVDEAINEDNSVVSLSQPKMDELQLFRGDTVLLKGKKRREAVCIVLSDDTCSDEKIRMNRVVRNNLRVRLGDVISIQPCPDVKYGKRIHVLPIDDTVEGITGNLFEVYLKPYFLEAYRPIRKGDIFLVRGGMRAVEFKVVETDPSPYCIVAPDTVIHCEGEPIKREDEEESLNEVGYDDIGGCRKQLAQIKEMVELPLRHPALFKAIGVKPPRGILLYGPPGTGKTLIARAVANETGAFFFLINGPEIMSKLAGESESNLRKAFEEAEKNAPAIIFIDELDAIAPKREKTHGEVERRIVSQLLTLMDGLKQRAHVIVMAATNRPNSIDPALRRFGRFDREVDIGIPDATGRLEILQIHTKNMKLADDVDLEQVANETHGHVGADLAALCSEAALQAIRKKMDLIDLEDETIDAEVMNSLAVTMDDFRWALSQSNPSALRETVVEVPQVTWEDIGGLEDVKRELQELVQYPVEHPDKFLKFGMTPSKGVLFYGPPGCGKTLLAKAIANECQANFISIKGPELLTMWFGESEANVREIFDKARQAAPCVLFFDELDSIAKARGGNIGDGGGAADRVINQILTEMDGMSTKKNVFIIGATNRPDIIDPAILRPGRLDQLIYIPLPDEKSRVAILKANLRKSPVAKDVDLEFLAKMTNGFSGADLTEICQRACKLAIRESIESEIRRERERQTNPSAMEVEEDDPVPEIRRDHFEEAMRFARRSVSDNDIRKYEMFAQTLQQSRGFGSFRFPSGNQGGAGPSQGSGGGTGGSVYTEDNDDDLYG

Cc1cc(OCc2nnc(SC3CCCC3)n2-c2cccnc2)ccc1-c1ccc(S(C)(=O)=O)cc1
selectivity ratio [1]: 50 | IC50 [2]: 130 nM | selectivity ratio [3]: 50 | EC50 [4]: 30 nM | EC50 [5]: 30 nM | selectivity ratio [6]: 50

CC(C)[C@@H]1CN(c2nc(Nc3cc(C(C)(C)C)[nH]n3)c3cc[nH]c3n2)CCN1
IC50 [7]: 99 nM

CC(=O)c1c(O)c(C)c(O)c(Cc2c(O)c3c(c(C(=O)/C=C/c4ccccc4)c2O)OC(C)(C)C=C3)c1O [ROTTLERIN]
IC50 [8]: 250 nM | IC50 [9]: 570 nM

O=C(CCl)Nc1cccc(NC2=NS(=O)(=O)c3ccccc32)c1
IC50 [10]: 3000 nM

C=C(C)CSc1nnc2c(n1)[nH]c1ccccc12
GI50 [11]: 136 nM

O=c1[nH]c2ccccc2n1C1CCN(Cc2ccc(-c3nc4cc5[nH]cnc5cc4nc3-c3ccccc3)cc2)CC1
IC50 [8]: 3500 nM | IC50 [9]: 4000 nM

Cc1cc(OCc2cnc(SC3CCCC3)n2-c2cccnc2)ccc1C#CCCNC(C)C
IC50 [12]: 7 nM

Nc1nc(O)c2ncn(COC(CO)CO)c2n1 [GANCICLOVIR]
IC50 [13]: 1300 nM

C=C(C)CSc1nnc2c(n1)[nH]c1cc(Br)ccc12
GI50 [11]: 14 nM

C[C@@H]1CNCCN1c1nc(Nc2cc(C(C)(C)C)[nH]n2)c2ccccc2n1
IC50 [7]: 4400 nM

C[C@@H]1CNCCN1c1nc(Nc2cc(C(C)(C)C)[nH]n2)c2cccc(F)c2n1
IC50 [14]: 230 nM | IC50 [15]: 4840 nM
